Columns and labels:
4T1 cells [1] = experiment: ds-RNA detection by propidium iodide staining after DNase/RNase treatment; assay type: cell-based
Experimental: 4T1 cells were grown on a coverslip in RPMI media to 70-80% confluency. The cells were treated with Compound 1 or Oxaliplatin. Detection of ds-RNA was a modification of protocol described by Kantarjian et al. (Kantarjian et al., Blood. 1985 July; 66(1):39-46). Following treatment, the coverslips were washed in phosphate-buffered saline (PBS) and fixed in 70% ice-cold ethanol. Cells were then washed with saline and treated with 1 mg/mL of DNase in 0.25 mol/L sucrose, 5 mmol/L MgCl2, and 20 mmol/L Tris-HCL (pH 6.5) at 37° C. for 60 min. In addition, another set of cells, subjected to Compound 1 or Oxaliplatin treatment were treated with RNase at a concentration of 5 mg/mL at 37° C. for 60 minutes. After another wash in PBS, the coverslips were exposed to propidium iodide at a final concentration of 50 μg/ml, diluted in a solution containing 10 mmol/L Tris-HCl (pH 7.4) and 5 mmol/L MgCl2. Stained cells were kept at 4° C. prior to microscopic analysis using a NIKON epi-fluorescence microscope using excitation wavelengths of 480 nm and emission wavelengths of 590 nm.

4T1 cells [2] = experiment: immune memory study: re-implantation of 4T1 cells; assay type: in vivo, Balb/c mice
Experimental: 4T1 cells were subcutaneously implanted in Balb/c mice to generate tumors. When tumors reached an average volume of 100 mm^3, they were treated with Compound 1. Two groups of Balb/c mice (non-tumor bearing) were either treated with Compound 1 or saline (designated Group 1 and 2 respectively; FIG. 3A).
Immune memory cells are poised to rapidly expand and induce effector functions upon recurrence, while existing in a functionally quiescent state. In order to check this hypothesis, we examined immune memory in Compound 1 treated tumors. […] The results also rule out the effect of any residual drug inducing tumor memory in non-tumor bearing animals.

T cell receptor (TCR) = experiment: activation of TCR; details: in comparison to Oxaliplatin, FIG. 2A
4T1 tumors [3] = experiment: tumor regression in immunocompetent versus immune-deficient mice strains; assay type: in vivo, mice (Balb/c, Jh−/−, SCID); details: FIG. 4
Text: To understand the role of immune components in tumor regression following treatment with Compound 1, tumor regression was studied in three different mice strains. These included immunocompetent mice (Balb/c); B cell-deficient mice (designated Jh^−/−) and mice lacking functional B cells and T cells (SCID). 4T1 cells were subcutaneously implanted in the three strains mentioned and when tumors reached an average volume of 100 mm^3, they were divided into two groups. One group was kept as control and the other treated with Compound 1 and the tumor volume in all the animals were recorded.

splenic B cells [4] = experiment: relative mRNA expression of B cell differentiation and TLR activation genes in isolated splenic B cells; assay type: in vivo; details: B cells from tumor bearing mice treated (Group 3), normalized to Group 1, FIG. 6B
Experimental: Mice splenic B cells were isolated from Group 1 and Group 3 mice, described in Example 3.
Spleen was harvested from mice (n=3) and minced into small pieces in RPMI-1640 basal media. The pieces were placed on top of a 40 mesh membrane and crushed with the back of a syringe and the single cell suspension was collected onto a 50 ml tube. The single cell suspension was washed twice with PBS to remove debris by centrifuging at 2000 rpm. Splenocytes were counted using haemocytometer and 100 million splenocytes were resuspended in 1 ml of isolation buffer (2% FBS, […] in DPBS) and transferred to a 5 ml polysterene tube. The B cells were isolated from splenocytes using the EasySep Stem Cell B cell isolation kit as per manufacturers protocol. Ten million B cells were used for RNA isolation, followed by relative mRNA expression levels of genes involved in B cell differentiation and TLR activation were evaluated.

splenic B cells [5] = experiment: splenic B cells cultured with treatment conditioned media (TCM) from treated 4T1 cells, relative mRNA expression; assay type: cell-based, mice
Experimental: 4T1 cells were seeded in cell culture dishes in RPMI-1640 media containing 10% FBS. The cells were treated with Oxaliplatin and Compound 1 when they reached 60% confluence. Following a transient treatment of 6 hours, the media was removed and supplemented with fresh culture media. Cells were incubated at 37° C. for 24 hours. After 24 hours, the treatment conditioned media (TCM) was collected from each treatment and divided into two parts. One part was passed through 0.1 micron PES filters to obtain tumor conditioned media free of cell debris, with nucleic acids intact; while the other was passed through 0.1 micron Nylon membrane filters, where the nucleic acids would stick and get removed. The filtration process through Nylon membrane was repeated twice to remove all nucleic acids from the TCM. The harvested TCMs were used immediately for conditioning of B cells, isolated from naïve mice splenocytes using the EasySep Stem Cell B cell isolation kit as per manufacturers protocol. The B cells were incubated with conditioned media and harvested after 24 hours of incubation. RNA was isolated from the B cells and used for relative mRNA expression level evaluation of genes involved in B cell differentiation and TLR activation.

CD8+ T cells in tumors = experiment: infiltration of cytotoxic CD8+ T-cells in treated tumors; assay type: in vivo; details: FIG. 2B
4T1 tumors [6] = experiment: relative mRNA expression (qRT-PCR) of immune genes in harvested 4T1 tumors; assay type: in vivo; details: 4T1 tumors in Balb/c mice, one cycle of treatment, FIG. 1A
Experimental: 4T1 cells were subcutaneously implanted in Balb/c mice to generate tumors. When tumors reached an average volume of 100 mm^3, they were treated with either Compound 1 or Oxaliplatin. After one cycle of treatment, following regression, tumors were harvested and a portion of the tumor from each group was used for total RNA isolation. The tumor infiltrating immune cells were evaluated for relative mRNA expression levels of immune activating and immune suppressive genes (Denkert et al., Clin Oncol. 2015; 33(9):983-91).

LLC tumors = experiment: immunohistochemical analysis of tumor sections, murine NSCLC tumor model; assay type: in vivo; details: LLC tumors in C57/BL6 mice, two cycles of treatment, FFPE sections, FIG. 1B
Experimental: Murine NSCLC tumor model was generated by subcutaneously implanting LLC cells in C57/BL6 mice. Treatment with either Compound 1 or Oxaliplatin was initiated when average tumor volume reached 100 mm^3. Following two cycles of treatment, tumors were harvested and a portion fixed in formalin. FFPE sections were generated from the fixed tumors and immunohistochemical analysis of tumor sections was carried out for both T and B-cells.

In the case of `CC(C)CCC[C@@H](C)[C@H]1CCC2C3CC=C4C[C@@H](OCCN(CC(=O)[O-])CC(=O)[O][Pt+]5[NH][C@@H]6CCCC[C@H]6[NH]5)CC[C@]4(C)C3CC[C@@]21C` (stereo partly drawn) [Compound 1], the “relative fluorescent intensity per field (dsRNA amount)” value (4T1 cells [1]; DNase treated samples, propidium iodide stain, FIG. 5C) was “enhancement of relative fluorescent intensity per field”, the “stability of RNA adducts” value (4T1 cells [1]; compared to Oxaliplatin) was “more stable RNA adducts” and the “tumor growth after implantation of 4T1 cells in treated non-tumor bearing mice” value (4T1 cells [2]; Group 1: non-tumor bearing Balb/c mice treated, similar to saline treated mice (Group 2), FIG. 3C) was “led to the growth of tumors”. For the same compound, the “tumor growth upon re-implantation of cancer cells (immune memory)” value (4T1 cells [2]; Group 3: animals that had previously undergone tumor regression with treatment, FIG. 3B) was “no tumor growth was observed upon re-implantation of cancer cells”, the “activation of TCR” value (T cell receptor (TCR)) was “substantial activation of TCR” and the “tumor regression in mice lacking immune cells” value (4T1 tumors [3]; 4T1 tumors in B cell-deficient (Jh−/−) and SCID mice, growth similar to control mice) was “Tumors do not regress”. The “tumor regression in immunocompetent mice” value (4T1 tumors [3]; 4T1 tumors in Balb/c mice) was “causes tumor regression only in immunocompetent mice”, the “IGKC mRNA levels in splenic B cells” value (splenic B cells [4]) was “significant increase in IGKC mRNA levels” and the “expression of TLRs and CD80 in splenic B cells” value (splenic B cells [4]) was “elevated expression of TLRs and CD80”. The “B cell differentiation markers and TLR activation markers (relative mRNA)” value (splenic B cells [5]; TCM with nucleic acids intact (PES filter), 24 hours incubation, FIG. 7B) was “substantially increased”, the “relative level of B cell differentiation and TLR activation markers, nucleic acid depleted TCM” value (splenic B cells [5]; nucleic acids removed from TCM (Nylon membrane filter), FIG. 7C) was “substantially reduced” and the “infiltration of cytotoxic T cells (CD8+ T cells) in tumors” value (CD8+ T cells in tumors) was “infiltration of cytotoxic T cells”. The “IGKC mRNA levels in tumors” value (4T1 tumors [6]) was “significant increase in IGKC mRNA levels”, the “B220 level by immunohistochemistry” value (LLC tumors) was “elevated levels” and the “IGKC level by immunohistochemistry” value (LLC tumors) was “elevated levels”.

Source: patent publication US20240342128A1, “IMMUNE MEMORY INDUCTION BY PLATINUM BASED COMPOUNDS” (AKAMARA THERAPEUTICS, INC., priority 2016, published 2024)
